Laboratory results taken from patent publication US12233161B1, “Lipids and lipid nanoparticle formulations” (LONGUIDE BIOPHARMA CORPORATION, priority 2024, dated 2025).

Key:
[1] = Particle size and PDI of nucleic acid lipid nanoparticle preparations by dynamic light scattering; format: physicochemical
In short: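 Size read by DLS after diluting the LNP preparation (approx. 0.04 mg/mL mRNA) in ultrapure water with gentle pipette mixing. The same sample, recovered and diluted further with water, was then used for zeta potential measurement.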

mice = experiment: In vivo delivery of FLuc-mRNA lipid nanoparticles in mice, in vivo imaging (IVIS); conditions: for IVIS: Fluc-mRNA
In short: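 Mice (n=3) received about 75 μL FLuc-mRNA LNP per mouse intramuscularly (rectus femoris), intravenously (tail vein), intraperitoneally or subcutaneously (back). After injection, D-luciferin (200 μL, 15 mg/mL) was given i.p. 10-15 min before IVIS imaging.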

[2] = DMG-PEG2000:DSPC:Chol:compound 1.40:11.15:38.95:48.50, N/P 20
[3] = IM, DMG-PEG2000:DSPC:Chol:compound 1.40:11.15:38.95:48.50, N/P 20
[4] = IV, organ not given, DMG-PEG2000:DSPC:Chol:compound 1.40:11.15:38.95:48.50, N/P 20
[5] = IV, body, DMG-PEG2000:DSPC:Chol:compound 1.40:11.15:38.95:48.50, N/P 20
[6] = IV, liver, DMG-PEG2000:DSPC:Chol:compound 1.40:11.15:38.95:48.50, N/P 20
[7] = IV, lung, DMG-PEG2000:DSPC:Chol:compound 1.40:11.15:38.95:48.50, N/P 20
[8] = IV, spleen, DMG-PEG2000:DSPC:Chol:compound 1.40:11.15:38.95:48.50, N/P 20
[9] = DMG-PEG2000:DSPC:Chol:compound 1.40:11.15:38.95:48.50, N/P 30
[10] = IM, DMG-PEG2000:DSPC:Chol:compound 1.40:11.15:38.95:48.50, N/P 30
[11] = IV, organ not given, DMG-PEG2000:DSPC:Chol:compound 1.40:11.15:38.95:48.50, N/P 30
[12] = DMG-PEG2000:DSPC:Chol:compound 1.40:11.15:38.95:48.50, N/P 40
[13] = IV, liver, DMG-PEG2000:DSPC:Chol:compound 1.40:11.15:38.95:48.50, N/P 40
[14] = IV, lung, DMG-PEG2000:DSPC:Chol:compound 1.40:11.15:38.95:48.50, N/P 40
[15] = IV, spleen, DMG-PEG2000:DSPC:Chol:compound 1.40:11.15:38.95:48.50, N/P 40
[16] = IV, body, DMG-PEG2000:DSPC:Chol:compound 1.40:11.15:38.95:48.50, N/P 30
[17] = IV, liver, DMG-PEG2000:DSPC:Chol:compound 1.40:11.15:38.95:48.50, N/P 30
[18] = IV, lung, DMG-PEG2000:DSPC:Chol:compound 1.40:11.15:38.95:48.50, N/P 30
[19] = IV, spleen, DMG-PEG2000:DSPC:Chol:compound 1.40:11.15:38.95:48.50, N/P 30

For `CCCCCCCCCCCCNC(=O)C(O)CN(CCCCCCCN(CC(O)C(=O)NCCCCCCCCCCCC)CC(O)C(=O)NCCCCCCCCCCCC)CC(O)C(=O)NCCCCCCCCCCCC` (stereo not drawn) [Compound L0308], the PDI [1, 2] was 0.10, the “Particle size (nm)” value [1, 2] was 132.67 nm and the IVIS (mice; [3]) was 9.07E+05. The IVIS (mice; [4]) was 1.99E+05.

With `CCCCCCCCCCCCOC(=O)C(O)CN(CCOCCOCCN(CC(O)C(=O)OCCCCCCCCCCCC)CC(O)C(=O)OCCCCCCCCCCCC)CC(O)C(=O)OCCCCCCCCCCCC` (stereo not drawn) [Compound L0309] the PDI [1, 2] was 0.11, the “Particle size (nm)” value [1, 2] was 180.63 nm and the IVIS (mice; [3]) was 3.09E+06. The IVIS (mice; [5]) was 1.24E+06, the “% of organ targeting” value (mice; [6]) was 21.49% and the IVIS (mice; [6]) was 5.48E+05. The “% of organ targeting” value (mice; [7]) was 3.37%, the IVIS (mice; [7]) was 8.60E+04 and the “% of organ targeting” value (mice; [8]) was 75.14%. For the same compound, the IVIS (mice; [8]) was 1.91E+06.

For `CCCCCCCCCCCCOC(=O)C(O)CN(C)CCCN(C)CCCN(C)CC(O)C(=O)OCCCCCCCCCCCC` (stereo not drawn) [Compound L0310], the PDI [1, 9] was 0.22, the “Particle size (nm)” value [1, 9] was 190.63 nm and the IVIS (mice; [10]) was 1.53E+05. For the same compound, the IVIS (mice; [11]) was 2.77E+05.

For `CCCCCCCCCCCCNC(=O)C(O)CN(C)CCCN(C)CCCN(C)CC(O)C(=O)NCCCCCCCCCCCC` (stereo not drawn) [Compound L0311], the PDI [1, 9] was 0.16, the “Particle size (nm)” value [1, 9] was 111.00 nm and the IVIS (mice; [10]) was 2.23E+05. It also gave an IVIS (mice; [11]) of 4.57E+05.

With `CCCCCCCCCCCCOC(=O)C(O)CN(CCOCCN(CC(O)C(=O)OCCCCCCCCCCCC)CC(O)C(=O)OCCCCCCCCCCCC)CC(O)C(=O)OCCCCCCCCCCCC` (stereo not drawn) [Compound L0312] the PDI [1, 2] was 0.12, the “Particle size (nm)” value [1, 2] was 172.73 nm and the IVIS (mice; [3]) was 9.71E+05. It also gave an IVIS (mice; [4]) of 5.52E+05.

In the case of `CCCCCCCCCCNC(=O)C(O)CN(CCOCCOCCN(CC(O)C(=O)NCCCCCCCCCC)CC(O)C(=O)NCCCCCCCCCC)CC(O)C(=O)NCCCCCCCCCC` (stereo not drawn) [Compound L0325], the PDI [1, 2] is reported as 0.12, the “Particle size (nm)” value [1, 2] is reported as 94.88 nm and the IVIS (mice; [3]) is reported as 5.09E+06. The IVIS (mice; [4]) was 1.95E+07.

For `CCCCCCCCCCNC(=O)C(O)CN(CCOCCN(CC(O)C(=O)NCCCCCCCCCC)CC(O)C(=O)NCCCCCCCCCC)CC(O)C(=O)NCCCCCCCCCC` (stereo not drawn) [Compound L0326], the PDI [1, 2] was 0.14, the “Particle size (nm)” value [1, 2] was 103.37 nm and the IVIS (mice; [3]) was 6.75E+05. For the same compound, the IVIS (mice; [4]) was 1.02E+06.

With `CCCCCCCCCCNC(=O)C(O)CN(C)CCCN(C)CCCN(C)CC(O)C(=O)NCCCCCCCCCC` (stereo not drawn) [Compound L0327] the PDI [1, 9] was 0.18, the “Particle size (nm)” value [1, 9] was 108.57 nm and the IVIS (mice; [10]) was 4.85E+05. For the same compound, the IVIS (mice; [11]) was 2.98E+05.

For `CCCCCCCCCCCCNCC(O)CN(CCCNC(=O)CCN(CCCN(CCC(=O)NCCCN(CC(O)C(=O)NCCCCCCCCCCCC)CC(O)C(=O)NCCCCCCCCCCCC)CCC(=O)NCCCN(CC(O)C(=O)NCCCCCCCCCCCC)CC(O)C(=O)NCCCCCCCCCCCC)CCC(=O)NCCCN(CC(O)C(=O)NCCCCCCCCCCCC)CC(O)C(=O)NCCCCCCCCCCCC)CC(O)C(=O)NCCCCCCCCCCCC` (stereo not drawn) [Compound L0328], the PDI [1, 12] was 0.11, the “Particle size (nm)” value [1, 12] was 150.47 nm and the IVIS (mice; IM, DMG-PEG2000:DSPC:Chol:compound 1.40:11.15:38.95:48.50, N/P 40) was 9.40E+05. For the same compound, the IVIS (mice; IV, body, DMG-PEG2000:DSPC:Chol:compound 1.40:11.15:38.95:48.50, N/P 40) was 3.55E+07, the “% of organ targeting” value (mice; [13]) was 51.92% and the IVIS (mice; [13]) was 5.62E+06. For the same compound, the “% of organ targeting” value (mice; [14]) was 1.56%, the IVIS (mice; [14]) was 1.69E+05 and the “% of organ targeting” value (mice; [15]) was 46.52%. It also gave an IVIS (mice; [15]) of 5.04E+06.

In the case of `CCCCCCOCOCCCCCCOC(=O)C(O)CN(CCOCCOCCN(CC(O)C(=O)OCCCCCCOCOCCCCCC)CC(O)C(=O)OCCCCCCOCOCCCCCC)CC(O)C(=O)OCCCCCCOCOCCCCCC` (stereo not drawn) [Compound L0329], the PDI [1, 2] is reported as 0.18, the “Particle size (nm)” value [1, 2] is reported as 158.43 nm and the IVIS (mice; [3]) is reported as 4.22E+06. The IVIS (mice; [5]) was 3.09E+06, the “% of organ targeting” value (mice; [6]) was 25.67% and the IVIS (mice; [6]) was 5.34E+05. For the same compound, the “% of organ targeting” value (mice; [7]) was 5.35%, the IVIS (mice; [7]) was 1.11E+05 and the “% of organ targeting” value (mice; [8]) was 68.99%. It also gave an IVIS (mice; [8]) of 1.44E+06.

With `CCCCCCOCOCCCCCCOC(=O)C(O)CN(CCOCCN(CC(O)C(=O)OCCCCCCOCOCCCCCC)CC(O)C(=O)OCCCCCCOCOCCCCCC)CC(O)C(=O)OCCCCCCOCOCCCCCC` (stereo not drawn) [Compound L0330] the PDI [1, 2] was 0.10, the “Particle size (nm)” value [1, 2] was 145.77 nm and the IVIS (mice; [3]) was 1.35E+06. For the same compound, the IVIS (mice; [5]) was 2.05E+06, the “% of organ targeting” value (mice; [6]) was 29.70% and the IVIS (mice; [6]) was 2.90E+05. For the same compound, the “% of organ targeting” value (mice; [7]) was 4.48%, the IVIS (mice; [7]) was 4.37E+04 and the “% of organ targeting” value (mice; [8]) was 65.82%. For the same compound, the IVIS (mice; [8]) was 6.43E+05.

For `CCCCCCOCOCCCCCCOC(=O)C(O)CN(C)CCCN(C)CCCN(C)CC(O)C(=O)OCCCCCCOCOCCCCCC` (stereo not drawn) [Compound L0331], the PDI [1, 9] was 0.06, the “Particle size (nm)” value [1, 9] was 122.67 nm and the IVIS (mice; [10]) was 3.39E+06. It also gave an IVIS (mice; [11]) of 9.27E+05.

With `CCCCCCCCCCCCNCC(O)CN(CCN(CCN(CC(O)CNCCCCCCCCCCCC)CC(O)C(=O)NCCCCCCCCCCCC)CC(O)C(=O)NCCCCCCCCCCCC)CC(O)C(=O)NCCCCCCCCCCCC` (stereo not drawn) [Compound L0332] the PDI [1, 9] was 0.18, the “Particle size (nm)” value [1, 9] was 150.70 nm and the IVIS (mice; [10]) was 7.75E+05. The IVIS (mice; [11]) was 3.67E+05.

With `CCCCCCOC(C)OCCCCCCOC(=O)C(O)CN(CCN(C)CCN(CC(O)C(=O)OCCCCCCOC(C)OCCCCCC)CC(O)C(=O)OCCCCCCOC(C)OCCCCCC)CC(O)C(=O)OCCCCCCOC(C)OCCCCCC` (stereo not drawn) [Compound L0333] the PDI [1, 9] was 0.09, the “Particle size (nm)” value [1, 9] was 130.70 nm and the IVIS (mice; [10]) was 1.70E+06. The IVIS (mice; [16]) was 6.44E+08, the “% of organ targeting” value (mice; [17]) was 74.80% and the IVIS (mice; [17]) was 1.29E+08. For the same compound, the “% of organ targeting” value (mice; [18]) was 4.15%, the IVIS (mice; [18]) was 7.15E+06 and the “% of organ targeting” value (mice; [19]) was 21.05%. The IVIS (mice; [19]) was 3.63E+07.

In the case of `CC/C=C\CCOCOCCCCCCOC(=O)C(O)CN(CCN(C)CCN(CC(O)C(=O)OCCCCCCOCOCC/C=C\CC)CC(O)C(=O)OCCCCCCOCOCC/C=C\CC)CC(O)C(=O)OCCCCCCOCOCC/C=C\CC` (stereo not drawn) [Compound L0334], the PDI [1, 9] is reported as 0.06, the “Particle size (nm)” value [1, 9] is reported as 146.13 nm and the IVIS (mice; [10]) is reported as 6.25E+05. The IVIS (mice; [16]) was 5.29E+08, the “% of organ targeting” value (mice; [17]) was 57.03% and the IVIS (mice; [17]) was 1.01E+08. The “% of organ targeting” value (mice; [18]) was 6.95%, the IVIS (mice; [18]) was 1.22E+07 and the “% of organ targeting” value (mice; [19]) was 36.03%. For the same compound, the IVIS (mice; [19]) was 6.35E+07.
